Test results published in patent publication US20220177453A1, “CRYSTALLIZATION OF SMAC MIMIC USED AS IAP INHIBITOR AND PREPARATION METHOD THEREOF” (CHIA TAI TIANQING PHARMACEUTICAL GROUP CO., LTD., priority 2019, published 2022).

Columns and labels:
[1] = Long-term accelerated stability test; type: physicochemical
Experimental: Long-term accelerated test: 22 parts of crystalline form A of the compound of formula (I) each containing 1 50 g were prepared. The samples were separately put into a double-layer LDPE bag with each layer of LDPE bag sealed separately. The bag was then put into an aluminum foil bag for heat sealing. At inspection time points, the corresponding test samples were taken out, covered with bottle caps. 0-day samples were thawed to room temperature and directly analyzed. Approximately 10 mg of the test article was subjected to XRPD. The compounds were placed in the following conditions and samples were taken at different time points for determining their properties, XRPD pattern, content and related substances.

[2] = Influencing factor (high temperature, high humidity) and irradiation stability tests; type: physicochemical
[3] = Hygroscopicity study (DVS); type: physicochemical
Experimental: Instrument model: SMS DVS Advantage
Test conditions: crystalline form A of the compound of formula (I) (10-15 mg) was placed in a DVS sample tray for testing.
The DVS parameters are as follows: • Temperature: 25° C. • Balancing: dm/dt=0.01%/min (shortest: 10 min, longest: 180 min) • Drying: drying at 0% RH for 120 min • RH (%) measurement gradient: 10% • RH (%) measurement gradient range: 0%-90%-0%

[4] = system: MDA-MB-231 triple negative breast cancer CDX; test: In vivo efficacy study 1, MDA-MB-231 triple negative breast cancer CDX model; parameters: species or system BALB/c nude mice
Experimental: (§1) In vivo efficacy study was conducted on BALB/c nude mice by subcutaneously implanting human tumor cell line-derived xenograft (CDX) from MDA-MB-231 triple negative breast cancer patients
(§2) BALB/c nude mice, female, aged 6-8 weeks, about 18-22 g, were kept in a special pathogen-free environment and in separate ventilated cages (3 mice per cage). All cages, bedding and water were disinfected prior to use. All animals had free access to standard certified commercial laboratory diets. 48 mice were purchased from Shanghai BK Laboratory Animal Co., LTD. for the study. Each mouse was implanted subcutaneously in the right flank with cancer cells (10×10^6 cells in 0.2 mL of phosphate buffered saline) for tumor growth. The mice were administered when the mean tumor volume reached about 147 mm^3. The test compounds were administered orally at a daily dose of 30 mg/kg. Tumor volume was measured every 3 days with a two-dimensional caliper, and the volume was measured in mm^3 and calculated according to the following formula: V=0.5×a×b^2, where a and b are the long and short diameters, respectively, of the tumor. Anti-tumor efficacy was determined by dividing the mean tumor increase volume of compound-treated animals by the mean tumor increase volume of untreated animals

[5] = system: MDA-MB-231 triple negative breast cancer CDX; test: In vivo efficacy study 2, MDA-MB-231 triple negative breast cancer CDX model; parameters: species or system BALB/c nude mice
Experimental: as §1
as §2, with “tumor” for “cancer”, “(10×10^6” for “(10×10^6 cells”, “buffer)” for “buffered saline)”, “110” for “147”

XIAP BIR3 = molecular target: T1, XIAP BIR3 (Homo sapiens, UniProt P98170); test: XIAP BIR3 fluorescence polarization binding assay; details: 5 nM probe, 30 nM XIAP BIR3
T1 construct: isolated BIR3 domain of XIAP (amino acids 255-356; XIAP BIR3); His; GST; purchased RBC APT-11-374; host or cells: E. coli
Experimental: (§3) Buffer system (a buffer for cIAP1 BIR3 or XIAP BIR3): 0.1 mollL potassium phosphate, pH 7.5, 0.1% bovine serum albumin, 0.005% Triton X-100 and 1% dimethyl sulfoxide.
(§4) Probe: ARPFAQ-K(5-FAM)-NH2.
(§5) XIAP-BIR3-his: RBC (Cat# APT-11-374), isolated BIR3 domain of XIAP (amino acids 255-356; XIAP BIR3) expressed by E. coli as GST-fusion protein. Condition: 5 nM ARPFAQ-K(5-FAM)-NH2, 20 nM cIAP1 BIR3 and 30 nM XIAP BIR3.
(§6) Firstly, fresh buffer of cIAP1 BIR3 or XIAP BIR3 was prepared, and mixed with 2 folds of cIAP1 BIR3 or XIAP BIR3 solution. A solution of test compound completely dissolved in 100% DMSO via ultrasonication was added to the buffer containing cIAP1 BIR3 or XIAP BIR3. The mixture was added with 2 folds of probes, mixed and incubated for 60 min in the dark at room temperature. Fluorescence polarization was measured and mP value was calculated, finally giving an IC50 value.

cIAP1 BIR3 = molecular target: T2, cIAP1 BIR3 (Homo sapiens, UniProt Q13490); test: cIAP1 BIR3 fluorescence polarization binding assay; details: 5 nM probe, 20 nM cIAP1 BIR3
T2 construct: isolated BIR3 domain of human cIAP1 (amino acids 258-363); cIAP1; His; GST; purchased RBC APT-11-370; host or cells: E. coli
Source text: as §3, §4
cIAP1-BIR3-his: RBC (Cat# APT-11-370), isolated BIR3 domain of human cIAP1 (amino acids 258-363; cIAP1
BIR3) expressed by E. coli as GST-fusion protein.
as §5, §6

T1 sequence (P98170 255-356): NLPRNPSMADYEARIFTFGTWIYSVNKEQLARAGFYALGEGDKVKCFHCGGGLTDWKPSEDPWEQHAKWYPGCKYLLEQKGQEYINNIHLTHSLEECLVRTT
T2 sequence (Q13490 258-363): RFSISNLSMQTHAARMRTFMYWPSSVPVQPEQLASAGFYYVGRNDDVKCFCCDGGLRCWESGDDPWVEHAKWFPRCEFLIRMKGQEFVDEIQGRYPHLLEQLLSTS

CN[C@@H](C)C(=O)N[C@H](C(=O)N1CCC[C@H]1Cn1cc(C(C)=O)c2cc(Cl)ccc21)C1CCCCC1
Content of crystalline form A (%) ([1]; 25° C.-60% RH-3 months): 98% | Impurity content (%) ([1]; 25° C.-60% RH-3 months): 1.16% | Content of crystalline form A (%) ([1]; 25° C.-60% RH-6 months): 99.5% | Impurity content (%) ([1]; 25° C.-60% RH-6 months): 1.12% | Content of crystalline form A (%) ([1]; 25° C.-60% RH-9 months): 98.2% | Impurity content (%) ([1]; 25° C.-60% RH-9 months): 1.22% | Content of crystalline form A (%) ([1]; 25° C.-60% RH-12 months): 100.2% | Impurity content (%) ([1]; 25° C.-60% RH-12 months): 1.09% | Content of crystalline form A (%) ([1]; 40° C.-75% RH-1 month): 99.3% | Impurity content (%) ([1]; 40° C.-75% RH-1 month): 1.2% | Content of crystalline form A (%) ([1]; 40° C.-75% RH-2 months): 98.1% | Impurity content (%) ([1]; 40° C.-75% RH-2 months): 1.19% | Content of crystalline form A (%) ([1]; 40° C.-75% RH-3 months): 97.8% | Impurity content (%) ([1]; 40° C.-75% RH-3 months): 1.13% | Content of crystalline form A (%) ([1]; 40° C.-75% RH-6 months): 98.5% | Impurity content (%) ([1]; 40° C.-75% RH-6 months): 1.12% | Content of crystalline form A (%) ([1]; Day 0): 98.2% | Impurity content (%) ([1]; Day 0): 1.19% | Content of crystalline form A (%) ([2]; 25° C.-92.5% RH-5 days): 99.1% | Impurity content (%) ([2]; 25° C.-92.5% RH-5 days): 1.16% | Content of crystalline form A (%) ([2]; 25° C.-92.5% RH-10 days): 98.8% | Impurity content (%) ([2]; 25° C.-92.5% RH-10 days): 1.13% | Content of crystalline form A (%) ([2]; 25° C.-92.5% RH-30 days): 99.2% | Impurity content (%) ([2]; 25° C.-92.5% RH-30 days): 1.19% | Content of crystalline form A (%) ([2]; 60° C.-5 days): 99% | Impurity content (%) ([2]; 60° C.-5 days): 1.16% | Content of crystalline form A (%) ([2]; 60° C.-10 days): 98.2% | Impurity content (%) ([2]; 60° C.-10 days): 1.14% | Content of crystalline form A (%) ([2]; 60° C.-30 days): 99.1% | Impurity content (%) ([2]; 60° C.-30 days): 1.19% | Content of crystalline form A (%) ([2]; Day 0): 98.2% | Impurity content (%) ([2]; Day 0): 1.19% | Content of crystalline form A (%) ([2]; Irradiation-5 days): 97.8% | Impurity content (%) ([2]; Irradiation-5 days): 1.12% | Content of crystalline form A (%) ([2]; Irradiation-10 days): 99.3% | Impurity content (%) ([2]; Irradiation-10 days): 1.13% | Crystalline form stability by XRPD versus day 0 ([2]; the various test conditions of Tables 4 and 5): stable | hygroscopic weight gain ([3]; 25° C. and 80% RH): 0.72% | Classification of hygroscopicity ([3]; weight gain at 25° C./80% RH): slightly hygroscopic

CN[C@@H](C)C(=O)N[C@H](C(=O)N1CCC[C@H]1Cn1cc(C(C)=O)c2cc(Cl)ccc21)C1CCCCC1 [Compound of formula (I)]
Tumor volume (mm^3) ([4]; 6 days, 30 mg/kg oral daily): 214 mm^3 | Tumor volume (mm^3) ([4]; 13 days, 30 mg/kg oral daily): 282 mm^3 | Tumor volume (mm^3) ([4]; 20 days, 30 mg/kg oral daily): 810 mm^3 | Tumor volume (mm^3) ([4]; Day 0, 30 mg/kg oral daily): 147 mm^3 | Tumor volume (mm^3) ([5]; 5 days, 30 mg/kg oral daily): 111 mm^3 | Tumor volume (mm^3) ([5]; 12 days, 30 mg/kg oral daily): 86 mm^3 | Tumor volume (mm^3) ([5]; 20 days, 30 mg/kg oral daily): 177 mm^3 | Tumor volume (mm^3) ([5]; Day 0, 30 mg/kg oral daily): 110 mm^3 | IC50 (XIAP BIR3): 29.9 nM | IC50 (cIAP1 BIR3): 5 nM
